{"source": "paper PMC7473772", "about": "(eLife, 2020)", "key": {"[1]": {"target": "tbaqp1-2-3 null cells expressing TbAQP2 WT or Trp/Met mutants (Trypanosoma brucei brucei, UniProt Q6ZXT3)", "type": "cell-based", "details": "+ AQP2 WT"}, "[2]": {"target": "T1, tbaqp1-2-3 null cells expressing TbAQP2 WT or Trp/Met mutants (Trypanosoma brucei brucei, UniProt Q6ZXT3, L118W/L84W)", "T1 sequence (Q6ZXT3 1-312 L84W/L118W)": "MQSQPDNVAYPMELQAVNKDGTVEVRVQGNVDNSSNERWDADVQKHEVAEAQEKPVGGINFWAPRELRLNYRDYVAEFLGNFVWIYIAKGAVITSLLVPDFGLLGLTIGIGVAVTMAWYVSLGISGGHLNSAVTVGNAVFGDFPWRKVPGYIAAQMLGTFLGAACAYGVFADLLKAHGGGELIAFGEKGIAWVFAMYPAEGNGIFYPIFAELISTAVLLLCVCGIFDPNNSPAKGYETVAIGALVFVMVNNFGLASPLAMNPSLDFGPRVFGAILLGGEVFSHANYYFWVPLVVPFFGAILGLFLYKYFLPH", "type": "cell-based", "details": "AQP2 mutant L84W/L118W"}, "[3]": {"system": "tbaqp1-2-3 null cells expressing TbAQP2 WT or Trp/Met mutants", "type": "cell-based, Trypanosoma brucei brucei", "details": "triple KO AQP1-3"}, "[4]": {"target": "T2, tbaqp1-2-3 null cells expressing TbAQP2 WT or Trp/Met mutants (Trypanosoma brucei brucei, UniProt Q6ZXT3, L218W)", "T2 sequence (Q6ZXT3 1-312 L218W)": "T1 sequence (Q6ZXT3 1-312 L84W/L118W) with W84L, W118L, L218W", "type": "cell-based", "details": "AQP2 mutant L218W"}, "[5]": {"target": "T3, tbaqp1-2-3 null cells expressing TbAQP2 WT or Trp/Met mutants (Trypanosoma brucei brucei, UniProt Q6ZXT3, L118W)", "T3 sequence (Q6ZXT3 1-312 L118W)": "T1 sequence (Q6ZXT3 1-312 L84W/L118W) with W84L", "type": "cell-based", "details": "AQP2 mutant L118W"}, "[6]": {"target": "T4, tbaqp1-2-3 null cells expressing TbAQP2 WT or Trp/Met mutants (Trypanosoma brucei brucei, UniProt Q6ZXT3, L84M)", "T4 sequence (Q6ZXT3 1-312 L84M)": "T1 sequence (Q6ZXT3 1-312 L84W/L118W) with W84M, W118L", "type": "cell-based", "details": "AQP2 mutant L84M"}, "[7]": {"target": "T5, tbaqp1-2-3 null cells expressing TbAQP2 WT or Trp/Met mutants (Trypanosoma brucei brucei, UniProt Q6ZXT3, L84W)", "T5 sequence (Q6ZXT3 1-312 L84W)": "T1 sequence (Q6ZXT3 1-312 L84W/L118W) with W118L", "type": "cell-based", "details": "AQP2 mutant L84W"}, "[8]": {"target": "T6, tbaqp1-2-3 null cells expressing TbAQP2 WT or Trp/Met mutants (Trypanosoma brucei brucei, UniProt Q6ZXT3, L118M)", "T6 sequence (Q6ZXT3 1-312 L118M)": "T1 sequence (Q6ZXT3 1-312 L84W/L118W) with W84L, W118M", "type": "cell-based", "details": "AQP2 mutant L118M"}, "[9]": {"target": "T7, tbaqp1-2-3 null cells expressing TbAQP2 WT or Trp/Met mutants (Trypanosoma brucei brucei, UniProt Q6ZXT3, L218M)", "T7 sequence (Q6ZXT3 1-312 L218M)": "T1 sequence (Q6ZXT3 1-312 L84W/L118W) with W84L, W118L, L218M", "type": "cell-based", "details": "AQP2 mutant L218M"}}, "note": "Residue numbers refer to the chain shown, from its start. Several values for one entry are separate records, joined by “and”; a condition that tells them apart may be missing. Identical values can stand only once."}
{"smiles": "OCC(O)CO", "note": "[Glycerol]", "values": [{"measurement": "Glycerol uptake, percent of + AQP2 WT, single replicates", "setting": "[1]", "result": "100.00% of + AQP2 WT"}, {"measurement": "Glycerol uptake, percent of + AQP2 WT, AVG", "setting": "[1]; n=3", "result": "100.0% of + AQP2 WT"}, {"measurement": "Glycerol uptake, percent of + AQP2 WT, single replicates", "setting": "[2]", "result": "26.06% of + AQP2 WT and 22.48% of + AQP2 WT and 15.25% of + AQP2 WT"}, {"measurement": "Glycerol uptake, single replicates", "setting": "[2]; exp HK1560", "result": "4801.50 dpm and 4646.75 dpm and 3099.50 dpm"}, {"measurement": "Glycerol uptake, AVG", "setting": "[2]; n=3", "result": 4183, "unit": "dpm"}, {"measurement": "Glycerol uptake, percent of + AQP2 WT, AVG", "setting": "[2]; n=3", "result": "21.3% of + AQP2 WT"}, {"measurement": "Glycerol uptake, percent of + AQP2 WT, single replicates", "setting": "[3]", "result": "18.67% of + AQP2 WT and 17.85% of + AQP2 WT and 11.96% of + AQP2 WT"}, {"measurement": "Glycerol uptake, single replicates", "setting": "[3]; exp HK1560", "result": "3439.75 dpm and 3689.75 dpm and 2430 dpm"}, {"measurement": "Glycerol uptake, AVG", "setting": "[3]; n=3", "result": 3187, "unit": "dpm"}, {"measurement": "Glycerol uptake, percent of + AQP2 WT, AVG", "setting": "[3]; n=3", "result": "16.2% of + AQP2 WT"}, {"measurement": "Glycerol uptake, percent of + AQP2 WT, single replicates", "setting": "[4]", "result": "75.79% of + AQP2 WT and 58.22% of + AQP2 WT and 78.07% of + AQP2 WT"}, {"measurement": "Glycerol uptake, single replicates", "setting": "[4]; exp HK1560", "result": "13962.75 dpm and 12032 dpm and 15866.50 dpm"}, {"measurement": "Glycerol uptake, AVG", "setting": "[4]; n=3", "result": 13954, "unit": "dpm"}, {"measurement": "Glycerol uptake, percent of + AQP2 WT, AVG", "setting": "[4]; n=3", "result": "70.7% of + AQP2 WT"}, {"measurement": "Glycerol uptake, percent of + AQP2 WT, single replicates", "setting": "[5]", "result": "36.39% of + AQP2 WT and 32.80% of + AQP2 WT and 32.53% of + AQP2 WT"}, {"measurement": "Glycerol uptake, single replicates", "setting": "[5]; exp HK1560", "result": "6704.25 dpm and 6779.50 dpm and 6612.25 dpm"}, {"measurement": "Glycerol uptake, AVG", "setting": "[5]; n=3", "result": 6699, "unit": "dpm"}, {"measurement": "Glycerol uptake, percent of + AQP2 WT, AVG", "setting": "[5]; n=3", "result": "33.9% of + AQP2 WT"}, {"measurement": "Glycerol uptake, percent of + AQP2 WT, single replicates", "setting": "[6]", "result": "71.54% of + AQP2 WT and 78.57% of + AQP2 WT and 85.30% of + AQP2 WT"}, {"measurement": "Glycerol uptake, single replicates", "setting": "[6]; exp HK1560", "result": "13178.67 dpm and 16239.50 dpm and 17336.50 dpm"}, {"measurement": "Glycerol uptake, AVG", "setting": "[6]; n=3", "result": 15585, "unit": "dpm"}, {"measurement": "Glycerol uptake, percent of + AQP2 WT, AVG", "setting": "[6]; n=3", "result": "78.5% of + AQP2 WT"}, {"measurement": "Glycerol uptake, percent of + AQP2 WT, single replicates", "setting": "[7]", "result": "55.50% of + AQP2 WT and 63.99% of + AQP2 WT and 46.33% of + AQP2 WT"}, {"measurement": "Glycerol uptake, single replicates", "setting": "[7]; exp HK1560", "result": "10224.8 dpm and 13226.00 dpm and 9416.00 dpm"}, {"measurement": "Glycerol uptake, AVG", "setting": "[7]; n=3", "result": 10956, "unit": "dpm"}, {"measurement": "Glycerol uptake, percent of + AQP2 WT, AVG", "setting": "[7]; n=3", "result": "55.3% of + AQP2 WT"}, {"measurement": "Glycerol uptake, percent of + AQP2 WT, single replicates", "setting": "[8]", "result": "62.48% of + AQP2 WT and 49.85% of + AQP2 WT"}, {"measurement": "Glycerol uptake, single replicates", "setting": "[8]; exp HK1560", "result": "11510.33 dpm and 10303.00 dpm"}, {"measurement": "Glycerol uptake, percent of + AQP2 WT, AVG", "setting": "[8]; n=2", "result": "56.2% of + AQP2 WT"}, {"measurement": "Glycerol uptake, percent of + AQP2 WT, single replicates", "setting": "[9]", "result": "85.78% of + AQP2 WT and 59.96% of + AQP2 WT and 82.90% of + AQP2 WT"}, {"measurement": "Glycerol uptake, single replicates", "setting": "[9]; exp HK1560", "result": "15802.25 dpm and 12393.00 dpm and 16849.00 dpm"}, {"measurement": "Glycerol uptake, AVG", "setting": "[9]; n=3", "result": 15015, "unit": "dpm"}, {"measurement": "Glycerol uptake, percent of + AQP2 WT, AVG", "setting": "[9]; n=3", "result": "76.2% of + AQP2 WT"}]}
